# US4264577A, “Contraceptive methods and compositions” (Eli Lilly and Company, priority 1980, dated 1981)
# Tests used:
# rats = details: orally (rats); cited from earlier work
# [1] = tested on: virgin dutch belted female rabbit; assay: Antifertility effect by intravaginal administration (K-Y jelly mixture); assay type: in vivo; details: 1 ml of K-Y jelly mixed with equal volume of 10 mg./ml. solution, 4 animals
# Procedure: Equal volumes of K-Y-jelly® and either Ca^++ free Ringer's solution or a 10 mg./ml. solution of the compound to be tested in Ca^++ free Ringer's solution are well mixed. One milliliter of this is placed into the vagina of a virgin dutch belted female rabbit using a syringe. The female is then immediately bred to a fertile buck. The female is injected I.V. with […] of human chorionic gonadotrophin to assure a good ovulation rate.
# After approximately 14 days the females are sacrificed by cervical dislocation and the genital system examined for the number of embryos.
# [2] = biological target: T1, Acrosin (purified from boar sperm) (Sus scrofa, UniProt P08001); assay: Acrosin inhibition in vitro (BAPNA substrate); assay type: biochemical; details: sodium salts
# T1 construct: purified from boar sperm; from tissue; host or cells: boar sperm
# Procedure: A control using the buffer solution without the test compound added is also run. A 200 μl-sample of the incubation mixture is then withdrawn and is added to a cuvette containing BAPNA (1 ml.) and triethanolamine buffer (2 ml.). The mixture is stirred and placed in a Gilford recording spectrophotometer. The increase in optical density at 383 nm is measured. One unit of acrosin activity is defined as the amount of acrosin which will cause an increase in optical density at 383 nm. of 0.001/minute. One unit of inhibitory activity is defined as the amount of inhibitor which will cause a reduction in the increase in optical density at 383 nm. of 0.001/minute.
# [3] = Drug release rate in vitro from dimethylpolysiloxane rubber, Method A (calcium-free Ringer's, assayed by acrosin inhibition); assay type: physicochemical
# Procedure: An appropriate sample of a dimethylpolysiloxane rubber compound in which is incorporated the test compound is placed in a suitable amount of calcium-free Ringers solution, and the sample and solution are incubated together at 37° C. for a period of time (e.g. 24 hours). The solution is removed and assayed for acrosin inhibition (expressed as units per milligram) using the technique described in Example 1. The equivalent amount of test compound in the removed solution is calculated from standard inhibition curves in which acrosin inhibition is plotted against concentration of the test compound. The calculated result are expressed as micrograms of test compound released per day.
# The above test may be repeated for an extended period of time, for example, for 1 day to 360 days, or more, by adding fresh calcium-free Ringer's solution after each removal of the solution for assay.
# Samples of a dimethylpolysiloxane rubber composition containing 10% W/W of sodium n-tetradecyl sulfate (prepared by Example 3, Method A) were tested as above described for 14 days. The sample weight was 14 mg. and the amount of added solution was 1 ml. After the 14th day, the release rate from the samples averaged 1-3 micrograms/day.
# In another experiment, a dimethylpolysiloxane rubber composition weighing 400 mg. and containing 10% W/W of sodium tetradecyl sulfate (prepared by Example 3, Method A) was studied for a 90-day period.
# [4] = Drug release rate in vivo, intrauterine medicated rubber rods; parameters: species or system rabbit; details: uterine horn
# Procedure: (a) Dimethylpolysiloxane rubber rods (3 mm. diameter shaved to 2 mm.) weighing 40 mg. each and containing 5, 10, or 20% (W/W) of sodium n-tetradecyl sulfate (prepared by Example 3, Method B, lots 218-1, 225-1, and 218-2, respectively) are inserted into the right uterine horn of virgin Dutch -belted female rabbits, as follows:
# After 60 days the animals in Group 1 are sacrificed and the rubber rods are removed, washed, and extracted continuously with methanol for 24 hours to remove the remaining sodium n-tetradecyl sulfate. The methanol extract is evaporated. The residue is dissolved in 10% methanol-water and assayed for sodium n-tetradecyl sulfate by the methylene blue method. The amount of active compound remaining in the rod is subtracted from the amount originally present in the rod, and the difference is assumed to be the amount released during the time period. After 120 days or […] the animals in Group 2 and Group 3, respectively, are sacrificed, and the rods were removed and treated as above described. The release of sodium n-tetradecyl sodium sulfate into the uterine fluids, as determined by the afore-described test procedure, after 60, 120, and 180 days is shown in Table 8, below: […]
# sperm = assay: Standard in vitro spermicidal tests (kill or immobilize sperm); assay type: cell-based; details: standard in vitro tests: ability to kill or immobilize sperm
# Source text: The alkyl or alkenyl sulfate salts have surface-active properties, and the sodium salts of dodecyl sulfate (lauryl sulfate), tetradecyl sulfate (myristyl sulfate), and hexadecyl sulfate (cetyl sulfate) are particularly useful surfactants for many applications. Sodium lauryl sulfate, for example, is widely used in topical creams, lotions and other preparations used for pharmaceutical or cosmetic purposes. A mixture of sodium lauryl sulfate and sodium myristyl sulfate is used commercially as a wetting agent, primarily in the paper industry. It is well known that surfactants may denature proteins when present in aqueous solutions in sufficient concentrations because the surface activity may affect peptide conformation.
# T1 sequence (P08001 40-338 limits assumed): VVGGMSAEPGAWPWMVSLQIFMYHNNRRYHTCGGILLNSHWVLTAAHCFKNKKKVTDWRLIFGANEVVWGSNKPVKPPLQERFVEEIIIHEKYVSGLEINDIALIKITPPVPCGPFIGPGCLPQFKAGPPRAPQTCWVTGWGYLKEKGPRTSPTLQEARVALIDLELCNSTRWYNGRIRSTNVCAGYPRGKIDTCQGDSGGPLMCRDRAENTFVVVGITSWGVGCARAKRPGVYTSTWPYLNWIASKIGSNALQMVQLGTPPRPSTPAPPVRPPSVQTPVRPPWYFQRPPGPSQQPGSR
# T1 sequence (P08001 17-39 limits assumed): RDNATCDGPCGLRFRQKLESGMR
smiles,measurement,setting,value
"CCCCCCCCCCCCCCOS(=O)(=O)[O-].[Na+] [n-tetradecyl, sodium n-tetradecyl sulfate]",LD50,rats,greater than 3.5 g/kg.
same,Avg. No. of Embryos per animal,[1],0
same,No. of embryos,[1],0
same,Inhibition (units/mg.),[2]; Conc. of Test Solution 1 Mg/ml,"960,000 units/mg."
same,Inhibition (units/mg.),[2]; Conc. of Test Solution 10 Mg/ml,"14,200 units/mg."
same,release rate from the samples (average),"[3]; 14 mg sample, 10% W/W, 1 ml solution, after the 14th day",1-3 micrograms/day
same,mean release rate,"[3]; 400 mg composition, 10% W/W, 90-day period",14 µg/day
same,Amount of sodium n-tetradecyl sulfate released,"[3]; Day 0.08 (2 hr.), 400 mg composition, 10% W/W",77 µg/day
same,Amount of sodium n-tetradecyl sulfate released,"[3]; Day 0.16 (2 hr.), 400 mg composition, 10% W/W",75 µg/day
same,Amount of sodium n-tetradecyl sulfate released,"[3]; Day 0.32 (8 hr.), 400 mg composition, 10% W/W",72 µg/day
same,Amount of sodium n-tetradecyl sulfate released,"[3]; Day 1, 400 mg composition, 10% W/W",69 µg/day
same,Amount of sodium n-tetradecyl sulfate released,"[3]; Day 2, 400 mg composition, 10% W/W",50 µg/day
same,Amount of sodium n-tetradecyl sulfate released,"[3]; Day 5, 400 mg composition, 10% W/W",15 µg/day
same,Amount of sodium n-tetradecyl sulfate released,"[3]; Day 7, 400 mg composition, 10% W/W",37.5 µg/day
same,Amount of sodium n-tetradecyl sulfate released,"[3]; Day 9, 400 mg composition, 10% W/W",50.0 µg/day
same,Amount of sodium n-tetradecyl sulfate released,"[3]; Day 12, 400 mg composition, 10% W/W",13 µg/day
same,Amount of sodium n-tetradecyl sulfate released,"[3]; Day 13, 400 mg composition, 10% W/W",0 µg/day
same,Amount of sodium n-tetradecyl sulfate released,"[3]; Day 15, 400 mg composition, 10% W/W",25 µg/day
same,Amount of sodium n-tetradecyl sulfate released,"[3]; Day 18, 400 mg composition, 10% W/W",28 µg/day
same,Amount of sodium n-tetradecyl sulfate released,"[3]; Day 27, 400 mg composition, 10% W/W",10 µg/day
same,Amount of sodium n-tetradecyl sulfate released,"[3]; Day 42.5, 400 mg composition, 10% W/W",7.6 µg/day
same,Amount of sodium n-tetradecyl sulfate released,"[3]; Day 50.5, 400 mg composition, 10% W/W",10.5 µg/day
same,Amount of sodium n-tetradecyl sulfate released,"[3]; Day 57.5, 400 mg composition, 10% W/W",12.0 µg/day
same,Amount of sodium n-tetradecyl sulfate released,"[3]; Day 64.5, 400 mg composition, 10% W/W",8.6 µg/day
same,Amount of sodium n-tetradecyl sulfate released,"[3]; Day 72.5, 400 mg composition, 10% W/W",8.3 µg/day
same,Amount of sodium n-tetradecyl sulfate released,"[3]; Day 76, 400 mg composition, 10% W/W",5.6 µg/day
same,Amount of sodium n-tetradecyl sulfate released,"[3]; Day 83, 400 mg composition, 10% W/W",5.1 µg/day
same,Amount of sodium n-tetradecyl sulfate released,"[3]; Day 90, 400 mg composition, 10% W/W",5.0 µg/day
same,"Release rate from dimethylpolysiloxane, in vitro (Calc. on basis of acrosin inhibition)",[3]; rod used in Table 6,1 to 3 mg/day
same,Amount of sodium n-tetradecyl sulfate released (μg. per day),"[4]; 5% compound in rod, 60 days",2.25 μg. per day
same,Amount of sodium n-tetradecyl sulfate released (μg. per day),"[4]; 5% compound in rod, 120 days",1.80 μg. per day
same,Amount of sodium n-tetradecyl sulfate released (μg. per day),"[4]; 5% compound in rod, 180 days",3.60 μg. per day
same,Amount of sodium n-tetradecyl sulfate released (μg. per day),"[4]; 10% compound in rod, 60 days",22.1 μg. per day
same,Amount of sodium n-tetradecyl sulfate released (μg. per day),"[4]; 10% compound in rod, 120 days",13.7 μg. per day
same,Amount of sodium n-tetradecyl sulfate released (μg. per day),"[4]; 20% compound in rod, 60 days",62.4 μg. per day
same,Amount of sodium n-tetradecyl sulfate released (μg. per day),"[4]; 20% compound in rod, 120 days",33.5 μg. per day
same,classical spermicidal activity,sperm,does not show classical spermicidal activity
